From PubChem BioAssay (NCI)
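Dose response: 5 concentrations. Exposure: 48 h. Format: 96-well plates. Endpoint: linear interpolation; highest concentration if not reached. The concentration for full growth arrest is given as TGI.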

Assays:
Assay in all cases: DTP human tumour cell line panel, 48 h
BT-549 breast = test system: BT-549 breast
HT29 colon = test system: HT29 colon
M14 melanoma = test system: M14 melanoma
MDA-MB-231 breast = test system: MDA-MB-231 breast
MDA-N = test system: MDA-N
OVCAR-3 ovarian = test system: OVCAR-3 ovarian
OVCAR-4 ovarian = test system: OVCAR-4 ovarian
OVCAR-5 ovarian = test system: OVCAR-5 ovarian
PC-3 prostate = test system: PC-3 prostate
RPMI-8226 leukemia = test system: RPMI-8226 leukemia
SF-268 CNS = test system: SF-268 CNS
SK-MEL-28 melanoma = test system: SK-MEL-28 melanoma
SNB-19 CNS = test system: SNB-19 CNS
SW-620 colon = test system: SW-620 colon
HL-60(TB) leukemia = test system: HL-60(TB) leukemia
SR leukemia = test system: SR leukemia

| SMILES | TGI (BT-549 breast) | TGI (HT29 colon) | TGI (M14 melanoma) | TGI (MDA-MB-231 breast) | TGI (MDA-N) | TGI (OVCAR-3 ovarian) | TGI (OVCAR-4 ovarian) | TGI (OVCAR-5 ovarian) | TGI (PC-3 prostate) | TGI (RPMI-8226 leukemia) | TGI (SF-268 CNS) | TGI (SK-MEL-28 melanoma) | TGI (SNB-19 CNS) | TGI (SW-620 colon) | TGI (HL-60(TB) leukemia) | TGI (SR leukemia) |
| --- | --- | --- | --- | --- | --- | --- | --- | --- | --- | --- | --- | --- | --- | --- | --- | --- |
| Cc1cc(S(=O)(=O)O)ccc1N=Nc1ccc(N=Nc2c(O)ccc3ccccc23)c(C)c1 | > 100 µM | > 100 µM | > 100 µM | > 100 µM | > 100 µM | > 100 µM | > 100 µM | > 100 µM | > 100 µM | > 100 µM | > 100 µM | > 100 µM | > 100 µM | > 100 µM |  |  |
| CC(=O)c1ccc2c(c1)oc(=O)n2CCN(C)C | > 100 µM | > 100 µM | > 100 µM | > 100 µM |  | > 100 µM |  | > 100 µM | > 100 µM |  | > 100 µM | > 100 µM |  | > 100 µM | > 100 µM | > 100 µM |
| Cc1cc(NC2=NCCO2)c2c(c1C)CCCC2 |  | 49.7 µM | 28.1 µM | 77.9 µM |  |  | > 100 µM | 57.1 µM |  | 45.3 µM | 54.7 µM | 40.7 µM | 38.8 µM | > 100 µM | 33.2 µM | 75.9 µM |
| Cc1cc2nc3n(c2cc1C)C(c1c(F)cccc1F)SC3 (centres undefined) | 43.7 µM | 38.9 µM | 40.8 µM | 41.4 µM |  | 91.2 µM | 62.2 µM | 43 µM | > 100 µM | 58.5 µM | 56.2 µM | 40.2 µM | 53.4 µM | 50.9 µM |  | 42.9 µM |
| CCOC(=O)N(CC)c1c(C(F)(F)F)cc(-c2ccccc2)[nH]c1=O | > 100 µM | > 100 µM | > 100 µM | > 100 µM | 53.9 µM | > 100 µM | 94.8 µM | > 100 µM | > 100 µM | 39.3 µM |  | > 100 µM | > 100 µM | > 100 µM | 30 µM |  |
| CC(O)(c1ccccc1)c1nccc2ccccc12 (centres undefined) | > 100 µM | > 100 µM | > 100 µM | > 100 µM | 53.7 µM | > 100 µM | > 100 µM | > 100 µM | > 100 µM | > 100 µM | > 100 µM | > 100 µM | > 100 µM | > 100 µM | > 100 µM |  |
| CCCCNC(=S)/N=C/c1c(O)c2ccccc2oc1=O |  | > 100 µM | > 100 µM | > 100 µM | > 100 µM | > 100 µM | > 100 µM | > 100 µM | > 100 µM |  |  | > 100 µM | > 100 µM | > 100 µM |  |  |
| FC1CCN(C2(c3cccs3)CCCCC2)CC1 | > 100 µM | > 100 µM | > 100 µM | > 100 µM | > 100 µM | > 100 µM | > 100 µM | > 100 µM | > 100 µM | > 100 µM |  | > 100 µM | > 100 µM | > 100 µM | > 100 µM |  |
| C[C@]12CCC(=O)C=C1CC[C@@H]1[C@@H]2C(=O)C[C@@]2(C)[C@H]1CC[C@]2(O)C(=O)CO |  | > 100 µM | > 100 µM |  |  | > 100 µM | > 100 µM |  |  | > 100 µM | > 100 µM | > 100 µM | > 100 µM | > 100 µM | > 100 µM | > 100 µM |
| O=C(c1ccc(Cl)cc1)N(C(=S)N1CCN(c2ccccn2)CC1)c1ccccc1 |  | > 100 µM | > 100 µM |  |  | > 100 µM | > 100 µM | > 100 µM |  | > 100 µM | > 100 µM | > 100 µM | > 100 µM | > 100 µM | > 100 µM | > 100 µM |
| CC1NOC(NS(=O)(=O)c2ccc(N=Nc3c(O)c(C(=O)O)cc4ccccc34)cc2)C1C (centres undefined) | > 100 µM | > 100 µM | > 100 µM | > 100 µM |  | > 100 µM | > 100 µM | > 100 µM | > 100 µM | > 100 µM | > 100 µM | > 100 µM | > 100 µM | > 100 µM | > 100 µM | > 100 µM |
| Oc1[nH]c2ccccc2c1N=NC(=S)N1CCCCCC1 |  | 10.8 µM | 2.52 µM | 3.35 µM | 22.7 µM | 1.49 µM | 3.91 µM | 12.4 µM | 10.6 µM | 4.15 µM | 11.8 µM | 7.61 µM | 15.4 µM | 9.23 µM |  | 3.44 µM |
| CCC(=N\NC(N)=S)/C(C)=N/O |  | > 100 µM | > 100 µM | > 100 µM | > 100 µM | > 100 µM | > 100 µM | > 100 µM | > 100 µM | > 100 µM | > 100 µM | > 100 µM | > 100 µM | > 100 µM |  |  |
| COC(=O)C1=C(OC(=O)/C(=C/c2ccc(Cl)cc2)c2ccccc2)C(C(=O)OC)[C@@]2(O)[C@@H](C(=O)OC)[C@H](C)C[C@@H]1[C@@H]2C(=O)OC (some centres undefined) | > 100 µM | > 100 µM | > 100 µM | > 100 µM |  | > 100 µM | > 100 µM | > 100 µM | > 100 µM | > 100 µM | > 100 µM | > 100 µM | > 100 µM | > 100 µM | > 100 µM | > 100 µM |
| O=C(/C=C/c1cccs1)c1ccsc1 |  | 41.7 µM | > 100 µM | > 10 µM | 36.3 µM |  | > 100 µM | > 100 µM | 59.1 µM | 45.4 µM | > 100 µM | 81.7 µM | 50.8 µM | 75.2 µM | 42.1 µM | 38.5 µM |
| CC(=O)OCC1OC(OCC2OC(N3C(=S)N[C@H]([C@@H](O)[C@H](O)[C@H](O)CO)[C@H]3O)C(OC(C)=O)C(OC(C)=O)C2OC(C)=O)C(OC(C)=O)C(OC(C)=O)C1OC(C)=O (some centres undefined) |  | > 100 µM | > 100 µM | > 100 µM | > 100 µM | > 100 µM | > 100 µM | > 100 µM | > 100 µM | > 100 µM | > 100 µM | > 100 µM | > 100 µM | > 100 µM |  | > 100 µM |
